Where two headings read alike, the source gives them in different places.
Experiments:
amphetamine-induced rats = test: Amphetamine-induced locomotor activity and stereotypic behaviour, open field arena (Example 2, Studies 1, 2, 4); type: in vivo, rat; conditions: for normalised total stereotypic behaviour, compared to vehicle-amphetamine group / total distance travelled, compared to vehicle-amphetamine group: amphetamine at t=30 min; for locomotor activity compared to the vehicle-amphetamine group (conclusion) / stereotypic behaviour compared to the vehicle-amphetamine group (conclusion): risperidone 1 mg/kg
From the text: Dopaminergic models for Tourette's syndrome use systemic or focal administration of dopamine agonists such as amphetamine. After injection with amphetamine, a test animal expresses stereotypic behaviour. In particular, involvement of a dopaminergic system implicated in Tourette's syndrome wild type mice and rats can be stimulated with amphetamine and the resulting hyperactivity and stereotypies can be reversed with dopamine antagonists such as risperidone and haloperidol (Tourette's syndrome—Animal Models for Screening, Charles River Discovery Research Services, Finland).
(§1) All animal experiments were carried out according to the National Institute of Health (NIH) guidelines for the care and use of laboratory animals, and approved by the National Animal Experiment Board, Finland. Male CD (Charles River Laboratories, Germany) at weight range of 200-250 g (165-200 g upon arrival) were used for the experiments. Animals were housed at a standard temperature (22±1° C.) and in a light-controlled environment (lights on from 7 am to 8 pm) with ad libitum access to food and water.
(§2) Locomotor activity of the rats was tested in open field arena. The open field test was performed during the rat light cycle and under a normal lighting evenly distributed to the test chambers. The paths of the rats were recorded by activity monitor (Med. Associates Inc.).
(§3) Dosing the vehicle, vehicle-amphetamine, (+)-α-DHTBZ or risperidone was done prior to LMA test. The rats were placed in the centre of the arena, and the path was recorded for 60 minutes.
(§4) Animals were grouped as follows: • Group 1: 10 rats treated with Vehicle (t=0 min) and Vehicle (t=30 min) • Group 2: 10 rats treated with Vehicle (t=0 min) and Amphetamine (t=30 min) • Group 3: 10 rats treated with (+)-α-DHTBZ 0.5 mg/kg (t=0 min) and Amphetamine (t=30 min) • Group 4: 10 rats treated with (+)-α-DHTBZ 1 mg/kg (t=0 min) and Amphetamine (t=30 min) • Group 5: 10 rats treated with (+)-α-DHTBZ 1.5 mg/kg (t=0 min) and Amphetamine (t=30 min) • Group 6: 10 rats treated with (+)-α-DHTBZ 2 mg/kg (t=0 min) and Amphetamine (t=30 min) • Group 7: 10 rats treated with risperidone 1 mg/kg (t=0 min) and Amphetamine (t=30 min)
(§5) Rats dosed with either vehicle, (+)-α-DHTBZ 0.5 mg/kg, (+)-α-DHTBZ 1 mg/kg, (+)-α-DHTBZ 1.5 mg/kg, (+)-α-DHTBZ 2 mg/kg or Risperidone 1 mg/kg were subjected to LMA testing first for 30 min and then for 60 minutes after vehicle or amphetamine challenge. Resulting locomotor activity was evaluated in 3 min bins and as a total over the testing period.
as §5, with “stereotypic” for “locomotor”
Animals were grouped as follows: • Group 1: 10 rats treated with Vehicle (t=0 min) and Vehicle (t=30 min) • Group 2: 10 rats treated with Vehicle (t=0 min) and Amphetamine (t=30 min) • Group 3: 10 rats treated with (+)-α-DHTBZ 0.1 mg/kg (t=0 min) and Amphetamine (t=30 min) • Group 4: 10 rats treated with (+)-α-DHTBZ 0.25 mg/kg (t=0 min) and Amphetamine (t=30 min) • Group 5: 10 rats treated with risperidone 1 mg/kg (t=0 min) and Amphetamine (t=30 min)
as §4, with “(+)-α-DHTBZ 1” for “(+)-α-DHTBZ 0.5”, “(+)-α-DHTBZ 1.5” for “(+)-α-DHTBZ 1”, “with Valbenazine 1” for “with (+)-α-DHTBZ 1.5”, “with Valbenazine 1.5” for “with (+)-α-DHTBZ 2”

[1] = system: non-amphetamine induced rats; test: Locomotor activity and stereotypic behaviour in non-amphetamine induced rats, open field arena (Example 2, Study 3); type: in vivo, rat; conditions: Study 3, non-induced rats; (+)-α-DHTBZ 2.5 mg/kg or 5 mg/kg, risperidone 1 mg/kg
Protocol: as §1, §2, §3
Animals were grouped as follows: • Group 1: 10 rats treated with Vehicle • Group 2: 10 rats treated with (+)-α-DHTBZ 2.5 mg/kg • Group 3: 10 rats treated with (+)-α-DHTBZ 5 mg/kg • Group 4: 10 rats treated with risperidone 1 mg/kg

[2] = oral administration of tetrabenazine, four patients affected by tardive dyskinesia; cited from earlier work
[3] = oral administration of tetrabenazine, patients treated for involuntary movement disorders; cited from earlier work
[4] = rats, administration of tetrabenazine or dihydrotetrabenazine; stereochemistry not disclosed; cited from earlier work
[5] = system: patients suffering from tardive dyskinesia; conditions: cited from earlier work
[6] = system: Tardive Dyskinesia sufferers; conditions: 80 mg/day; cited from earlier work
[7] = Study 1, (+)-α-DHTBZ at all the tested doses (0.5, 1, 1.5, 2 mg/kg)

**Q.** What does the source list for Cc1nc2n(c(=O)c1CCN1CCC(c3noc4cc(F)ccc34)CC1)CCCC2 [risperidone, reference compound]?
**A.** normalised total stereotypic behaviour, compared to vehicle-amphetamine group (amphetamine-induced rats; Study 1, 1 mg/kg): significantly different; locomotor activity compared to the vehicle-amphetamine group (conclusion) (amphetamine-induced rats; [7]): lower locomotor activity; stereotypic behaviour compared to the vehicle-amphetamine group (conclusion) (amphetamine-induced rats; [7]): reduced stereotypic behaviour; normalised total stereotypic behaviour, compared to vehicle-amphetamine group (amphetamine-induced rats; Study 2, 1 mg/kg): significantly different; locomotor activity compared to the vehicle-amphetamine group (conclusion) (amphetamine-induced rats; Study 2, (+)-α-DHTBZ at 0.25 mg/kg): lower locomotor activity; stereotypic behaviour compared to the vehicle-amphetamine group (conclusion) (amphetamine-induced rats; Study 2, (+)-α-DHTBZ at both the tested doses (0.1, 0.25 mg/kg)): reduced stereotypic behaviour; normalised total stereotypic behaviour, compared to vehicle-amphetamine group (amphetamine-induced rats; Study 4, 1 mg/kg): significantly different; total distance travelled, compared to vehicle-amphetamine group (amphetamine-induced rats; Study 4, 1 mg/kg): significantly different; total movement compared to rats treated with the vehicle [1]: reduced total movement; total stereotypic behaviour compared to rats treated with the vehicle [1]: reduced total stereotypic behaviour

**Q.** Which plasma concentrations [2] does the source give for COc1cc2c(cc1OC)C1CC(=O)C(CC(C)C)CN1CC2 (stereo not drawn) [tetrabenazine, 1,3,4,6,7,11b-hexahydro-9,10-dimethoxy-3-(2-methylpropyl)-2H-benzo(a)quinolizin-2-one] here?
**A.** low plasma concentrations

**Q.** What about the plasma concentrations [3] of the same compound?
**A.** very low plasma concentrations

**Q.** Which plasma concentrations [2] does the source give for COc1cc2c(cc1OC)C1CC(O)C(CC(C)C)CN1CC2 (stereo not drawn) [dihydrotetrabenazine, 2-hydroxy-3-(2-methylpropyl)-1,3,4,6,7,11b-hexahydro-9,10-dimethoxy-benzo(a)quinolizine] here?
**A.** relatively high concentrations

**Q.** What about the “crossing of the blood-brain barrier” value [4] of the same compound?
**A.** able to cross the blood-brain barrier

**Q.** For COc1cc2c(cc1OC)[C@H]1C[C@@H](OC(=O)[C@@H](N)C(C)C)[C@H](CC(C)C)CN1CC2 [Valbenazine, reference compound], which “normalised total stereotypic behaviour, compared to vehicle-amphetamine group” value (amphetamine-induced rats; Study 4, 1 mg/kg) is on record?
**A.** significantly different

**Q.** And the “total distance travelled, compared to vehicle-amphetamine group” value (amphetamine-induced rats; Study 4, 1 mg/kg)?
**A.** significantly different

**Q.** And the “normalised total stereotypic behaviour, compared to vehicle-amphetamine group” value (amphetamine-induced rats; Study 4, 1.5 mg/kg)?
**A.** significantly different

**Q.** And the “total distance travelled, compared to vehicle-amphetamine group” value (amphetamine-induced rats; Study 4, 1.5 mg/kg)?
**A.** significantly different

**Q.** What about the “symptoms scored with the abnormal involuntary movement scale (AIMS)” value ([5]; 50 mg/day) of the same compound?
**A.** did not show any significant signs of improvement

**Q.** What about the “symptoms scored with the abnormal involuntary movement scale (AIMS)” value ([5]; 100 mg/day) of the same compound?
**A.** some reduction of symptoms

**Q.** What about the “Abnormal Involuntary Movement Score” value [6] of the same compound?
**A.** significant improvement

Source: US20220211678A1, “USES OF (+)-A-DIHYDROTETRABENAZINE IN METHODS OF TREATING MOVEMENT DISORDER” (ADEPTIO PHARMACEUTICALS LIMITED, priority 2017, published 2022)
